Reference: patent US10955415B2, “CD247 as a biomarker for assessing the effect of chemotherapeutic and biological drugs” (YISSUM RESEARCH DEVELOPMENT COMPANY OF THE HEBREW …, priority 2011, dated 2021)
Entries after “also recorded” stand apart in the source; their conditions may differ.

What was measured:
MDSCs [1] = test: NO production of MDSCs in colon epithel and lamina propria, CRC mouse model; format: in vivo; settings: CRC-bearing mice, gated on MDSCs
MDSCs [2] = format: in vivo, mice; settings: mouse, in vivo
[3] = test system: CD11b+CD11c+ and CD11b+F4/80+ cells; test: Myeloid differentiation state in spleen (DCs, macrophages, APC maturation); format: in vivo; settings: BCG-inflamed mice
Excerpt: (§1) FIG. 18A-18E. Splenocytes and PBLs from mice untreated (naïve), inflamed, or inflamed and treated with 5-FU or CPT-11 were fixed, permeabilized, and double stained for the expression of CD247 (ζ-chain) (FIGS. 18A, 18B) and CD3ε-chain (FIGS. 18D, 18E), as shown by mean fluorescence intensity (MFI), measured in gated CD3^+ cells. FIG. 18C: Splenocytes from mice, naïve, inflamed and inflamed treated with 5-FU or CPT-11, were labeled with CFSE and activated with anti-CD3 and anti-CD28 antibodies or left non-activated. The proliferative response was assessed by monitoring cell divisions of gated CFSE-labeled Thy1.2+ (CD90+) T-cells. The percent of proliferating cells was calculated and compared to steady state levels of non-activated cells per each group. Data from three independent experiments is presented (n=3). Statistical analyses using t test indicated significant differences at 95%. Means and SEM are shown. *, P<0.05; **, P<0.01. FIG. 18F-18I. For the detection of myeloid differentiation state, splenocytes from each group were stained for (18F) DC11b^+CD11c^+ cells (representing DCs), (18G) DC11b^+F4/80^+ cells (representing monocytes), (18H) CD11c^+MHCII^+CD80^+ cells (representing fully differentiated […] as antigen presenting cells) and (18I) F4/80^+MHCII^+CD80^+ cells (representing fully differentiated […] as antigen presenting cells). Data from three independent experiments (n=4) is presented. Statistical analyses using t test indicated significant differences at 95%. Means and SEM are shown. *, P<0.05; **, P<0.01; ***, P<0.001. Abbreviations: Nor. (normal), Rel. (relative), Inf. (inflamed), ce. Pro. (cell proliferation)
Isolated splenocytes and peripheral blood leukocytes (PBLs) were treated with erythrocyte lysis buffer and washed in PBS. Cells were pre-coated with anti-CD16/CD32 (Biolegend) for FcR blockage. For surface staining, cells were incubated for 30 min at 4° C. with FITC-labeled anti-Gr1, anti-CD11c, and anti-CD4; PE-labeled anti F4/80, anti-CD3ε, anti-CD45R/B220, and anti-mNKp46; and biotinylated anti-CD11b and anti-CD8 that were detected with streptavidin-Cy5 (Biolegend and eBioscience). Intracellular staining of CD247 cells was performed by subjecting the cells to fixation with paraformaldehyde (1%) for 20 min at 4° C., followed by washing and permeabilization for 10 min with saponin detergent (0.1%) at room temperature (RT). Cells were then washed and incubated with FITC-labeled monoclonal anti-CD247 (H146) (Abcam), or biotinylated monoclonal anti-CD247 (H146), which were subsequently detected with streptavidin-Cy5. FoxP3 staining was performed according to the manufacturer's instructions. Samples were analyzed using FACSCalibur with Cell Quest software (BD).

MDSCs [4] = test: NO and ROS production gated on MDSCs, CRC mouse model; format: in vivo; settings: CRC-bearing mice, splenocytes
Description: Splenocytes isolated from normal mice, CRC mice or CRC mice treated with 5-FU alone or in a combination with CPT11 (n=5) were analyzed for nitric oxide (NO, FIG. 23A) and reactive oxygen species (ROS, FIG. 23B) production, both by flow cytometry analysis gaiting on the MDSCs (Gr1+CD11b+) population. Histograms represent production levels, as shown by mean fluorescence intensity (MFI). Data from three independent experiments (n=3) are presented. Statistical analyses using t test indicate significant differences at 95%. Means and SEM are shown. *, P<0.05; **, P<0.01. Abbreviations: Norm. (normal), g. (gated).

Thy1.2+ (CD90+) T-cells = test: T-cell proliferation of CFSE-labeled splenocytes activated with anti-CD3 and anti-CD28; format: in vivo; settings: splenocytes of BCG-inflamed treated mice, anti-CD3/anti-CD28 activation
Description: FIG. 2C. Splenocytes from untreated, inflamed, and inflamed-treated i.v. with irinotecan were labeled with CFSE and activated with anti-CD3 and anti-CD28 antibodies or left non-activated. The proliferative response was assessed by monitoring cell divisions of gated CFSE-labeled Thy1.2+ (CD90+) cells. Data was calculated by percent of proliferating cells compared to steady state of non-activated of each group.
as §1

cleaved caspase-3 = test: Cleaved caspase-3 in splenic MDSCs (flow cytometry); format: in vivo; settings: BCG-inflamed mice
Excerpt: FIG. 17F. […] Means and SEM are shown. *, P<0.05; **, P<0.01. Abbreviations: Inf. (inflamed), Tot. sp. (total spleen), sp (spleen), g. (gated), Norm. (normal).

CD247 (ζ-chain) = test: CD247 expression in spleen and PBLs, CRC mouse model; format: in vivo; settings: CRC (AOM/DSS) mice, vs untreated CRC-bearing mice
Excerpt: Means and SEM are shown. *, P<0.05; **, P<0.01. […] (normal).

CD247 = CD247 expression in T cells infiltrating the colon, CRC mouse model; format: in vivo; settings: CRC-bearing mice
MDSCs [5] = test: MDSC infiltration in colon lamina propria and epithel, CRC mouse model; format: in vivo; settings: CRC-bearing mice, tumor tissue

## O=c1[nH]cc(F)c(=O)[nH]1 [5-FU, 5-Fluorouracil]
MDSCs [1]
  NO production in epithel and lamina propria: reduced
MDSCs [2]
  NO production by MDSCs: decreased
  ROS production by MDSCs: decreased
  reduction of hROS of MDSCs: better results
[3]
  differentiated myeloid cells in spleen (CD11b+CD11c+ DCs, CD11b+F4/80+ macrophages): significant turning towards differentiated myeloid population
  maturation of antigen presenting cells (CD80 and MHCII expression): enhanced the maturation
MDSCs [4]
  NO and ROS production (MDSC suppressive activity): decreased the suppressive activity
Thy1.2+ (CD90+) T-cells
  proliferative capacity of T cells: tendency of a functional recovery
Cleaved caspase-3
  cleaved caspase-3 expression in spleen-derived MDSCs: significant increase
CD247 (ζ-chain)
  CD247 expression levels in spleen and blood: significantly recovered
CD247
  CD247 expression levels in T cells infiltrating the colon: elevated
MDSCs [5]
  MDSCs infiltration in lamina propria and colon epithelial tissue: significantly reduced

## CCc1c2c(nc3ccc(OC(=O)N4CCC(N5CCCCC5)CC4)cc13)-c1cc3c(c(=O)n1C2)COC(=O)[C@]3(O)CC [Irinotecan]
MDSCs [2]
  NO production by MDSCs: significant elevation; also recorded: did not result in any further changes
  ROS production by MDSCs: significant elevation; also recorded: significantly increased
[3]
  differentiated myeloid cells in spleen (CD11b+CD11c+ DCs, CD11b+F4/80+ macrophages): blockage of the myeloid cell differentiation and maturation
Thy1.2+ (CD90+) T-cells; listed as CPT11
  proliferative capacity of T cells: impaired proliferative capacity
Thy1.2+ (CD90+) T-cells; listed as CPT-11
  proliferative capacity of T cells: significantly diminished
CD247 (ζ-chain)
  CD247 expression levels in spleen and blood: low as in the case of CRC-bearing, non-treated mice
CD247
  CD247 expression levels in T cells infiltrating the colon: Reduced levels
MDSCs [5]
  MDSCs infiltration in lamina propria and colon epithelial tissue: significantly increased
